Measurements published in paper PMC5760651, “Peptidomimetic blockade of MYB in acute myeloid leukemia” (Nature Communications, 2018).
Non-standard residues stand in square brackets, D forms with d. Residues, ends and D or L forms follow the SMILES beside them. No end group written: not given here. *: point of attachment. Biotin = O=C1N[C@H]2[C@H](CS[C@H]2CCCCC(=O)*)N1

Tests used:
[1] = Plasma pharmacokinetics of BIO-MYBMIM, spectrophotometric avidin assay; assay type: in vivo, mouse; conditions: C57BL/6J mice, single dose 25 mg/kg IP
Protocol: All mouse experiments were carried out in accordance with the Memorial Sloan Kettering Institutional Animal Care and Use Committee. For toxicity studies, female C57BL/6J mice (The Jackson Laboratory, Bar Harbor, Maine, USA) were treated with MYBMIM peptide suspended in PBS and administered daily through intraperitoneal injection at a dose of 25 mg/kg for a total of 7 days. Mice were sacrificed at the end of treatment for hematologic, biochemical and histologic analyses. For pharmacokinetic studies, C57BL/6J mice (The Jackson Laboratory, Bar Harbor, Maine, USA) were treated with a single IP injection of 25 mg/kg BIO-MYBMIM, and blood plasma was collected 30 min, 2 h, 4 h, and 24 h post-injection. Quantification of BIO-MYBMIM was measured using the Quant-Tag Biotin kit (Vector Labs, cat. # BDK-2000) following the manufacturer instructions. For patient-derived xenografts, two hundred thousand primary AML MLL-rearranged leukemia cells were suspended in […] of PBS and transplanted via tail vein injection into 8-week-old sublethally irradiated (200 rad) female NOD.Cg-Prkdc(scid)Il2rg(tm1Wjl)/SzJ mice (The Jackson Laboratory, Bar Harbor, Maine, USA). […] Mice were treated from days 3–17 of this study for a total of 14 days and then monitored daily with clinical examination for survival analysis.

[2] = system: MOLM13, OCIAML2, and K562 cells; experiment: Cell viability with L-amino acid containing peptides; assay type: cell-based; conditions: 20 μM, 2 days, three biological replicates
Protocol: (§1) Cells were resuspended and plated at a concentration of 2 × 10^5 cells in 200 μl in 96-well tissue culture plates. Media with peptides was replaced every 48 h. To assess the number of viable cells, cells were resuspended in PBS and 10 µl of suspension was mixed in a 1:1 ratio with 0.4% Trypan Blue (Thermo Fisher) and counted using a hemacytometer (Hausser Scientific, Horsham, PA, USA). To assess viability using an ATP-based assay, cell viability was assessed using the CellTiter-Glo Luminescent Viability assay, according to the manufacturer’s instructions (Promega). Luminescence was recorded using the Infinite M1000Pro plate reader using integration time of 250 ms (Tecan).
Supplementary Figure 5. Viability of MOLM13, OCIAML2, and K562 cells, treated for 2 days with control PBS (black), 20 μM TATMYG (blue), and 20 μM TATMYB (red). Error bars […]
between treatment conditions.
(1 picture or pasted object on this page, not shown here)

[3] = system: MOLM-13, MV-411, ML-2 and HL-60 cells; experiment: Cell viability of AML cell lines; assay type: cell-based, human; conditions: 6 days, 20 μM TG1, TG2 or TG3, 10 and 20 μM MYBMIM, peptide replacement every 48 h, compared to untreated control
Protocol: as §1

[4] = target: FITC-conjugated MYB peptide (L-amino acid containing counterpart of MYBMIM) (UniProt P10242); experiment: MST
[5] = target: T1, purified recombinant CBP KIX domain (UniProt P45481 586-665); experiment: MST; conditions: both partners purified
T1 construct: also called KIX domain of CBP; source: E. coli BL21(DE3), pGEX-KIX, purified (glutathione agarose, thrombin cleavage, MonoS cation exchange)
T1 sequence (P45481 586-665): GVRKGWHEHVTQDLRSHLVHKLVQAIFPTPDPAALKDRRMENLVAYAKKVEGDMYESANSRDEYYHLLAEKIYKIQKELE

## CC[C@@H](C)[C@@H](NC(=O)[C@@H](CCCCN)NC(=O)[C@@H](CCC(=O)O)NC(=O)[C@@H](CC(C)C)NC(=O)[C@@H](CCC(=O)O)NC(=O)[C@@H](CC(C)C)NC(=O)[C@@H](CC(C)C)NC(=O)[C@@H](CC(C)C)NC(=O)[C@@H](CCSC)NC(=O)[C@@H](CO)NC(=O)[C@H](NC(=O)[C@@H](CCC(=O)O)NC(=O)[C@@H](CC(N)=O)NC(=O)[C@@H](CCC(=O)O)NC(=O)[C@@H](CC(C)C)NC(=O)[C@@H](CCCCN)NC(C)=O)[C@H](C)O)C(=O)N[C@H](CCCNC(=N)N)C(=O)N[C@H](CCCCN)C(=O)NCC(=O)NCC(=O)N[C@H](CCCNC(=N)N)C(=O)N[C@H](CCCNC(=N)N)C(=O)N[C@H](CCCNC(=N)N)C(=O)N[C@H](CCC(N)=O)C(=O)N[C@H](CCCNC(=N)N)C(=O)N[C@H](CCCNC(=N)N)C(=O)N[C@H](CCCCN)C(=O)N[C@H](CCCCN)C(=O)N[C@H](CCCNC(=N)N)C(=O)NCC(=O)N[C@H](Cc1ccc(O)cc1)C(=O)N[C@H](CCCCNC(=O)CCCC[C@@H]1SC[C@@H]2NC(=O)N[C@@H]21)C(N)=O [BIO-MYBMIM] (Ac-[dK][dL][dE][dN][dE][dT][dS][dM][dL][dL][dL][dE][dL][dE][dK][dI][dR][dK]GG[dR][dR][dR][dQ][dR][dR][dK][dK][dR]G[dY][dK](Biotin)-NH2)
[1]
  Plasma elimination: biphasic elimination
[1]; plasma collected at 30 min, 2 h, 4 h, 24 h
  Time of peak plasma peptide levels post injection: ≤ 30 min

## Ac-YGRKKRRQRRRGGKRIKELELLLMSTENGLK-NH2 [TATMYG]
[2]
  Viability: no significant differences

## CC[C@@H](C)[C@@H](NC(=O)[C@@H](CCCCN)NC(=O)[C@@H](CCC(=O)O)NC(=O)[C@@H](CC(C)C)NC(=O)[C@@H](CCC(=O)O)NC(=O)[C@@H](CC(C)C)NC(=O)[C@@H](CC(C)C)NC(=O)CNC(=O)[C@@H](CCSC)NC(=O)[C@@H](CO)NC(=O)[C@H](NC(=O)[C@@H](CCC(=O)O)NC(=O)[C@@H](CC(N)=O)NC(=O)[C@@H](CCC(=O)O)NC(=O)[C@@H](CC(C)C)NC(=O)[C@@H](CCCCN)NC(C)=O)[C@H](C)O)C(=O)N[C@H](CCCNC(=N)N)C(=O)N[C@H](CCCCN)C(=O)NCC(=O)NCC(=O)N[C@H](CCCNC(=N)N)C(=O)N[C@H](CCCNC(=N)N)C(=O)N[C@H](CCCNC(=N)N)C(=O)N[C@H](CCC(N)=O)C(=O)N[C@H](CCCNC(=N)N)C(=O)N[C@H](CCCNC(=N)N)C(=O)N[C@H](CCCCN)C(=O)N[C@H](CCCCN)C(=O)N[C@H](CCCNC(=N)N)C(=O)NCC(=O)N[C@H](Cc1ccc(O)cc1)C(N)=O [TG1] (Ac-[dK][dL][dE][dN][dE][dT][dS][dM]G[dL][dL][dE][dL][dE][dK][dI][dR][dK]GG[dR][dR][dR][dQ][dR][dR][dK][dK][dR]G[dY]-NH2)
[3]
  Growth of AML cell lines: inactive

## CC[C@@H](C)[C@@H](NC(=O)[C@@H](CCCCN)NC(=O)[C@@H](CCC(=O)O)NC(=O)[C@@H](CC(C)C)NC(=O)[C@@H](CCC(=O)O)NC(=O)[C@@H](CC(C)C)NC(=O)[C@@H](CC(C)C)NC(=O)CNC(=O)[C@@H](CCSC)NC(=O)[C@@H](CO)NC(=O)[C@H](NC(=O)[C@@H](CCC(=O)O)NC(=O)[C@@H](CC(N)=O)NC(=O)CNC(=O)[C@@H](CC(C)C)NC(=O)[C@@H](CCCCN)NC(C)=O)[C@H](C)O)C(=O)N[C@H](CCCNC(=N)N)C(=O)N[C@H](CCCCN)C(=O)NCC(=O)NCC(=O)N[C@H](CCCNC(=N)N)C(=O)N[C@H](CCCNC(=N)N)C(=O)N[C@H](CCCNC(=N)N)C(=O)N[C@H](CCC(N)=O)C(=O)N[C@H](CCCNC(=N)N)C(=O)N[C@H](CCCNC(=N)N)C(=O)N[C@H](CCCCN)C(=O)N[C@H](CCCCN)C(=O)N[C@H](CCCNC(=N)N)C(=O)NCC(=O)N[C@H](Cc1ccc(O)cc1)C(N)=O [TG2] (Ac-[dK][dL]G[dN][dE][dT][dS][dM]G[dL][dL][dE][dL][dE][dK][dI][dR][dK]GG[dR][dR][dR][dQ][dR][dR][dK][dK][dR]G[dY]-NH2)
[3]
  Growth of AML cell lines: inactive

## purified recombinant CBP KIX domain (from UniProt P45481 586-665) (domain or fragment)
[4]
  Kd: 4.2 µM

## Ac-YGRKKRRQRRRGGKRIKELELLLMSTENELK-NH2 [TATMYB]
[2]
  Viability: no significant differences

B1: FITC-conjugated MYBMIM (peptide)
chain: [dK][dL][dE][dN][dE][dT][dS][dM][dL][dL][dL][dE][dL][dE][dK][dI][dR][dK]
modifications: also: FITC-conjugated, site not given here, retro-inverso TAT delivery segment not in chain
[5]
  Kd: 21.3 ± 2.9 µM

## [dK][dL][dE][dN][dE][dT][dS][dM]G[dL][dL][dE][dL][dE][dK][dI][dR][dK]GG[dR][dR][dR][dQ][dR][dR][dK][dK][dR]G[dY]-NH2 (also: FITC-conjugated, site not given here) [FITC-conjugated TG1]
[5]
  Kd: 59.2 ± 12.4 µM

## [dK][dL]G[dN][dE][dT][dS][dM]G[dL][dL][dE][dL][dE][dK][dI][dR][dK]GG[dR][dR][dR][dQ][dR][dR][dK][dK][dR]G[dY]-NH2 (also: FITC-conjugated, site not given here) [FITC-conjugated TG2]
[5]
  Kd: 75.1 ± 12.5 µM

## [dK][dL]G[dN][dE][dT][dS][dM]G[dL][dL][dE][dL][dE][dK][dI]G[dK]GG[dR][dR][dR][dQ][dR][dR][dK][dK][dR]G[dY]-NH2 (also: FITC-conjugated, site not given here) [FITC-conjugated TG3]
[5]
  Kd: 114 ± 36.6 µM
